# Test results: patent US20250025581A1, “Medical Imaging of Glycogen Synthase Kinase-3 with a PET Probe” (Mayo Foundation for Medical Education and Research, priority 2021, published 2025)
# Counter-ions that a name gives are not always drawn.
# What was measured:
# [1] = PAMPA, pH 7.4
# Description: The blood brain permeability was expressed as permeability coefficient, P (10-6 cm/s) and −log Pe.
# [2] = serum stability by rad-TLC, human serum; assay type: in vitro ADME; conditions: 37° C., up to 120 min
# Procedure: (§1) The stability of both the probes in mouse and human serums was also measured along with a control at 0 min, 30 min, 60 min, and 120 min using rad-TLC as discussed later below. It was observed that [^18F]F-CNBI was stable >92% up to 120 min.
# (§2) Serum Stability Analysis: Stability analysis of [^18F]F-CNBI and [^18F]F-CNPIFE were assessed in human and mouse serums. To perform this stability assay, 100 μL of [^18F]F-CNBI (˜0.74 MBq) or 100 μL of [^18F]F-CNPIFE (˜3.70 MBq) was added to 100 μL of human or mouse serum in a microcentrifuge tube. The resultant mixture of radiotracer and serum was incubated at 37° C. for 120 min. To assess the stability of the probes, a small aliquot (˜0.5 μL) was taken out from the mixture in duplicate at 0 min, 30 min, 60 min and 120 min during incubation, and analyzed on a rad-TLC using 1:9 methanol: chloroform as a mobile phase using i-TLC to estimate the radio-stability of [^18F]F-CNBI or [^18F]F-CNPIFE at different time points post-incubation. For control, 100 μL of [^18F]F-CNBI (˜0.74 MBq) was taken in a microcentrifuge without dilution or 100 μL of [^18F]F-CNPIFE (˜3.70 MBq) was added to 100 μL deionized water in a microcentrifuge tube. Both the controls, were incubated at 25° C. for 120 min. At 0 min, 30 min, 60 min and 120 min during incubation, small aliquot (˜0.5 μL) was taken from the controls in duplicate and rad-TLC was performed as mentioned above. […]
# [3] = serum stability by rad-TLC, mouse serum; assay type: in vitro ADME; conditions: 37° C., up to 120 min
# Procedure: as §1, §2
# [4] = in vivo PET imaging in mice (Example 1), brain uptake; conditions: mouse brain
# Procedure: Initial in vivo study in mouse model: Initial in vivo PET imaging studies were conducted in mice at different time points. The uptake of the [^18F]CNPIFE (28) probe is expressed as a standard uptake value (SUV).
# In vivo study in mouse model: In vivo PET imaging studies were conducted in mice at different time points to compare the SUV for [^18F]—CNBI (4) and [^18F]CNPIFE (28).
# [5] = dynamic micro-PET imaging and biodistribution in normal FVB/NJ mice with and without self-blocking; assay type: in vivo, mouse; conditions: for effect of co-administration of the reference compound on brain uptake: self-blocking study
# Procedure: To pursue this, [^18F]F-CNBI and [^18F]F-CNPIFE were evaluated in the normal FVB/NJ mouse model.
# The uptake of [^18F]F-CNPIFE (SUV=0.48±0.09; n=5) in brain was 2.5-fold higher than [^18F]F-CNBI (SUV=0.19±0.06; n=6) as early as 5 min post-injection. This difference increased with time: 4.8-fold higher SUV for [^18F]F-CNPIFE (SUV=0.48±0.11; n=5) as compared to [^18F]F-CNBI (SUV=0.10±0.01; n=6) at 15 min which further increased to 9.5-fold difference at 30 min (see FIG. 21). […] The differences in uptakes of [^18F]F-CNPIFE and [^18F]F-CNBI in the brain and liver likely relate to the difference in their chemical structures (compounds 4 and 28). Greater accumulation of [^18F]F-CNPIFE in the brain relative to [^18F]F-CNBI was consistent with its higher BBB permeability value indicated by the PAMPA assay (see Table 1).
# To further understand the characteristics of the uptake of these PET probes in the brain, self-blocking studies with corresponding non-radiolabeled reference compounds were performed. In general, co-administration of [^18F]F-CNBI and [^18F]F-CNPIFE with their corresponding reference compounds, [^19F]F-CNBI and [^19F]F-CNPIFE, respectively, were expected to decrease the uptake of radiotracers in the brain. […] However, a non-significant trend in increase in brain uptake of [^18F]F-CNPIFE can be noticed on coadministration of nonradioactive [^19F]F-CNPIFE with the PET probe [^18F]F-CNPIFE. […] We hypothesize that enhanced brain uptake with additional administration of nonradioactive form of the tracer could be attributed to the binding of [^19F]F-CNBI with normally expressed GSK-3α/β in extremities and allowing relatively greater levels of [^18F]F-CNBI to be taken up by the brain as a peripheral effect.
# In vivo study: Biodistribution of [^18F]F-CNBI and [^18F]F-CNPIFE were assessed in brain and in liver of normal FVB/NJ mice (The Jackson Laboratory, Bar Harbor, ME) with and without co administration of unlabeled reference compounds [^19F]F-CNBI (200 μg and 300 μg) and [^19F]F-CNPIFE (25 μg) in separate groups of animals. Stock solutions of [^19F]F-CNPIFE (26 mM) and [^19F]F-CNBI (25 mM) were prepared in the dimethyl sulfoxide (DMSO). For blocking studies with [^19F]F-CNBI, 200 μg (530.5 nmol) or 300 μg (795.8 nmol) of [^19F]F-CNBI (nonradioactive reference compound) was added to the PET probe [^18F]F-CNBI self-containing ˜9.3 nmol [^19F]F-CNBI in the final formulation volume of ˜100 μL. For blocking with [^19F]F-CNPIFE, 25 μg (59 nmol) of [^19F]F-CNPIFE was added to the PET probe [^18F]F-CNPIFE self-containing to 0.8-1.0 nmol of [^19F]F-CNPIFE in the final formulation volume of ˜100 μL. The final formulation containing both PET probes and their nonradioactive reference compounds were prepared in 0.9% saline isotonic solution before tail vein injection. Immediately after the tail vein injection of the radiotracers, animals were subjected to a dynamic micro-PET imaging for 30 min using a small animal micro-PET/X-ray system (Sofie BioSystems Genesys4, Culver City, CA, USA). The PET images were visualized and analyzed using image analysis software, Amide's a Medical Image Data Examiner—AMIDE [Ref. 29]. PET images at 5 min, 10 min, 15 min, 20 min, 25 min, and 30 min post-injection were normalized to the standardized uptake value (SUV), where SUV=(Concentration of dose in tissue (μCi/g)/(Injected dose (μCi)/Weight of the animal (g)) and presented as coronal, transverse and sagittal sectional image.
# GSK-3 = test: binding affinity comparison with previous compounds, isoform not stated; assay type: biochemical; conditions: relative to [18F]CNBI (4)
# Procedure: The inhibitory effect of [^18F]—CNBI (4) and [^18F]—CNPI (25) (as synthesized as described above) and [^18F]CNPIFE (28) (as synthesized as shown in FIG. 10) on kinase activity was measured. […] Determination of IC50 was determined as follows. The phosphorylation of glycogen synthase substrate by human glycogen synthase kinase α (GSK-3α) or human glycogen synthase kinase β (GSK-3β) was performed using human GSK-3α/β Kinase Enzyme Assay System (Promega Corporation, Madison, WI) in the presence of GSK-3α/β probes (0-400 nM). The phosphorylation of glycogen synthase substrate was quantified using ADP-Glo™ Kinase assay system (Promega Corporation, Madison, WI). IC50 of GSK-3α/β probes was determined from resulting dose response curve and IC50 curve fitting tool of GraphPad Prism 10 (GraphPad Software, San Diego, CA). (See Stein et al., “Comparison of [^18F]F-CNBI and [^18F]F-CNPIFE as Positron Emission Tomography Probes for Noninvasive Imaging of Glycogen Synthase Kinase-3 in Normal Mice”, Eur. J. Org. Chem. 2022).
# It can be seen that [^18F]CNPIFE (28) has better purity (about 99% purity), better binding affinity (6×), and better blood brain barrier permeability (6×) compared to previous compounds such as [^18F]CNBI (4). The standard uptake is very close to 1, and to the gold standard value for [N-Methyl-^11C]2-(4′-methylaminophenyl)-6-hydroxybenzothiazole also known as [^11C] […]
# [6] = tested on: various tau isoforms and other proteins involved in neurodegeneration; test: affinity towards tau isoforms and other proteins involved in neurodegeneration; assay type: binding
# Procedure: The affinity of [^18F]CNPIFE (28) towards various tau isoforms and other proteins involved in neurodegeneration was measured.
# [7] = FVB/NJ mice, 5 min post-injection
# [8] = FVB/NJ mice, 15 min post-injection
# [9] = FVB/NJ mice, 30 min post-injection, without coadministration of reference compound
Structure (SMILES),"Permeability coefficient, P (10^−6 cm/s) Average ± SD [1]",stability in human serum [2] [%],stability in mouse serum [3] [%],uptake in the brain (SUV) [4] [SUV],"fold difference of brain uptake with blocking (coadministration of [19F]F-CNBI) ([5]; 30 min post-injection, 200-300 μg [19F]F-CNBI)","brain uptake (SUV) ([5]; 30 min post-injection, co-injected with 300 μg [19F]F-CNBI)","brain uptake (SUV) ([5]; 30 min post-injection, coadministration of 200 μg [19F]F-CNBI)","brain uptake (SUV) [5, 7] [SUV]","brain uptake (SUV) [5, 8] [SUV]","brain uptake (SUV) [5, 9] [SUV]",liver uptake (SUV) ([5]; co-injected with 200 μg [19F]F-CNBI),liver uptake (SUV) ([5]; co-injected with 300 μg [19F]F-CNBI),"liver uptake (SUV) ([5]; same animals as brain 30 min, without coadministration of [19F]F-CNBI)",effect of co-administration of the reference compound on brain uptake [5],better binding affinity compared to previous compounds such as [18F]CNBI (4) (GSK-3) [×],binding with various tau isoforms and other proteins involved in neurodegeneration [6],"brain uptake, fold higher than [18F]F-CNBI ([5]; 5 min post-injection) [fold]","brain uptake, fold higher than [18F]F-CNBI ([5]; 15 min post-injection) [fold]","brain uptake, fold higher than [18F]F-CNBI ([5]; 30 min post-injection) [fold]","brain uptake (SUV) ([5]; 30 min post-injection, coadministration of 25 μg [19F]F-CNPIFE)"
CC(C)NCC(O)COc1cccc2ccccc12 (stereo not drawn) [Propranolol HCl],32±1 10^−6 cm/s,–,–,–,–,–,–,–,–,–,–,–,–,–,–,–,–,–,–,–
"O=C(Nc1cnccc1-c1ccc([18F])nc1)c1ccnc(NC(=O)C2CC2)c1 [[^18F]F-CNBI, 2-(cyclopropanecarboxamido)-N-(6-(fluoro-^18F)-[3,4′-bipyridin]-3′-yl)isonicotinamide]",–,> 92,> 92,0.4,2.5-3.0 fold,0.24±0.01,0.20±0.01,0.19±0.06,0.10±0.01,0.08±0.005,4.93±0.52,3.89±0.60,10.15±2.87,significant increase,–,–,–,–,–,–
O=C(Nc1cnccc1-c1ccc(OCC[18F])cc1)c1ccnc(NC(=O)C2CC2)c1 [[^18F]F-CNPIFE],–,> 83,> 83,0.9,–,–,–,0.48±0.09,0.48±0.11,0.76±0.16,–,–,–,no significant difference,6,no to minimum binding,2.5,4.8,9.5,0.88±0.14
